The results in this text go back to article PMC6862253, “Synthesis and Evaluation of Anticancer Activity of New 4-Acyloxy Derivatives of Robustic Acid” (International Journal of Molecular Sciences, 2019).

In data set [1] the test system is human leukemic cells HL-60. Nature of the data set: MTS anti-proliferative assay, HL-60. It counts as cell-based. The conditions noted are these: mean ± SD. The method, then:
(§1) The MTS (3-(4,5-dimethylthiazole-2-yl)-5-(3-carboxymethoxyphenyl)-2-(4-sulfophenyl)-2H- tetrazolium) (Promega, Madison, WI, USA) assay was used to determine the IC50 value for all compounds, according to [26]. We used a panel of five human carcinoma cell lines and two normal cells including HL-60, A549, SMMC-7721, HepG2, Hela, LO2 and BEAS-2B. Cells were seeded in 96-well plates at a density of 3 × 10^3–1.5 × 10^4 cells/well in 100 μL medium (DMEM or RMPI1640) and incubated for 12–24 h at 37 °C. Subsequently, cells were exposed to drugs in an additional 100 μL medium and were further incubated at 37 °C for 48 h. In brief, 100 μL MTS reagent supplement with 100 μL medium was added directly to the wells and cells were incubated at 37 °C for a minimum of 2 h. Colorimetric measurements were recorded at 492 nm. Background absorbance was corrected using triplicate sets of wells[…] containing medium only (no cells), and MTS reagent was added per experimental well. Each experiment was performed at least three times, and values in results are represented as mean ± SD.

In data set [2] the test system is human non-small cell lung carcinoma cells A-549. Nature of the data set: MTS anti-proliferative assay, A-549. The data set is classed as cell-based. The following applies: mean ± SD. The method, then: as §1
In general terms: Tetrazolium assays rely on reduction of a dye to a coloured formazan, in cell work by metabolically active cells.

The test system of data set [3] is human hepatic carcinoma cells SMMC-7721. Nature of the data set: MTS anti-proliferative assay, SMMC-7721. The following applies: mean ± SD. The data set is classed as cell-based. How it is done:
as §1

Data set [4] relates to human hepatocellular carcinoma cells HepG2. Nature of the data set: MTS anti-proliferative assay, HepG2. The data set is classed as cell-based. The conditions noted are these: mean ± SD. How it is done:
as §1

Data set [5] has as its system human cervical carcinoma cells Hela. Nature of the data set: MTS anti-proliferative assay, Hela. The following applies: 48 h, mean ± SD. It counts as cell-based. The method, then: as §1
Data set [6] relates to human normal liver cells LO2. Nature of the data set: MTS cytotoxicity assay, normal LO2 cells. It counts as cell-based. The following applies: mean ± SD. How it is done: as §1
Data set [7] concerns human normal lung epithelial cells BEAS-2B. Nature of the data set: MTS cytotoxicity assay, normal BEAS-2B cells. The conditions noted are these: 48 h, mean ± SD. The data set is classed as cell-based. The method, then: as §1
Data set [8] addresses T1, DNA topoisomerase I (Topo I) (Bos taurus, UniProt F1MN93).
T1 construct: purchased Takara Bio Inc
T1 sequence (F1MN93 1-767): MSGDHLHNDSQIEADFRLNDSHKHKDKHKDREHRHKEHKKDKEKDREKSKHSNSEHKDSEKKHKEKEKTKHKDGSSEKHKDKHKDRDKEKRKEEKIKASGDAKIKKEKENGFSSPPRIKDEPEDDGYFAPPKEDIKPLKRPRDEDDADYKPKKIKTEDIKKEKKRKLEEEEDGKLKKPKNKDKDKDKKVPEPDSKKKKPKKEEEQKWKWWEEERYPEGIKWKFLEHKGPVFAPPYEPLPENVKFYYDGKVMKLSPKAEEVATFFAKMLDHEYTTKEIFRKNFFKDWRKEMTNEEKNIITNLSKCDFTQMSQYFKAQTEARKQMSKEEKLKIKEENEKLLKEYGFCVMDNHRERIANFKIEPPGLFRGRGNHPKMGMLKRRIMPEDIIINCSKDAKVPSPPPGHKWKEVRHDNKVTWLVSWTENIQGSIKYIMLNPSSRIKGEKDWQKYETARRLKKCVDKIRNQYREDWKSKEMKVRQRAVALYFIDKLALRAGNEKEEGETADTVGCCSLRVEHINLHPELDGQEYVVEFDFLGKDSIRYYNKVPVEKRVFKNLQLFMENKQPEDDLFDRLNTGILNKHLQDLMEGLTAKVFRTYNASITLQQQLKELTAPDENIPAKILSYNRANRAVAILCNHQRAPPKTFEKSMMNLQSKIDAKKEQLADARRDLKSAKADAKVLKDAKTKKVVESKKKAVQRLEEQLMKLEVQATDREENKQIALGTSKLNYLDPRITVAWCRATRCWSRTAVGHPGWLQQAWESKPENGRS
Nature of the data set: Topo I inhibitory activity, supercoiled DNA unwinding, agarose gel. It counts as biochemical. The text has this: DNA Topo I is an important enzyme in all living organisms, and it participates in many cellular metabolic processes, such as replication, transcription, recombination, and repair. DNA Topo I has been established as a molecular target of anticancer drugs. A combined study of synthesis and docking for the anti-cancer activity of novel coumarins concluded that coumarin derivatives are potent cytotoxic agents. […] Currently, discovering novel non-camptothecin inhibitors for DNA Topo I has become an important area of research. Thus, a DNA Topo I inhibitory activity assay was also carried out using the supercoiled DNA unwinding method in this study. […] Therefore, compounds 2d, 2g, and 2i were selected for further quantitative investigation (depicted in Figure 5B). […] This correlates well with the cytotoxicity to HL-60, A-549, and SMMC-7721 cells. Thus, we infer that the anti-proliferative activity of 4-acyloxy derivatives of RA to these three cells may be related to Topo I. Supercoiled […] DNA was used as a substrate to determine the Topo I catalytic activity. Commercial samples of Topo I and pBR322 were obtained from Takara Bio Inc. The buffer solutions were prepared using 500 mM KAc, 200 mM Tris-Ac, 100 mM Mg(Ac)2, and 1 mg/mL BSA. The procedure used for determination of enzyme inhibitory activity was similar to one reported by Xu et al..

A value given as a limit tells only on which side of the number the result lay.

Turning to `CCc1ccc(C(=O)Oc2c(-c3ccc(OC)cc3)c(=O)oc3c2=C(OC)C2C=CC(C)(C)OC2C=3)cc1` (centres unmarked) [Compound 2h, 4-O-(p-Ethylbenzoyl)robustic acid], the melting point was in the range of 246.9 to 250.2 °C.
Same read-out and setting: the figure for `COC1=c2c(OC(=O)c3cccs3)c(-c3ccc(OC)cc3)c(=O)oc2=CC2OC(C)(C)C=CC12` (centres unmarked) [Compound 2e, 4-O-Thenoyl robustic acid] is 171.5 to 182.3 °C; for `COC1=c2c(OC(C)=O)c(-c3ccc(OC)cc3)c(=O)oc2=CC2OC(C)(C)C=CC12` (centres unmarked) [Compound 2j, 4-O-Acetylrobustic acid] it is 189.9 to 192.1 °C.
Take `N.N.[Cl][Pt][Cl]` [cisplatin]: the IC50 is 14.2 ± 0.56 µM in [1] (48 h); 25.4 ± 1.06 µM in data set [2] (48 h); 1.32 ± 0.97 µM in data set [3] (48 h); 10.6 ± 1.4 µM in data set [4] (48 h); 5.83 ± 0.14 µM in data set [5]; below 0.008 µM in data set [6] (48 h). The molecule further had an IC50 in [7] of 57.7 ± 3.1 µM.
`COC1=c2c(OC(=O)c3ccc(C(F)(F)F)cc3)c(-c3ccc(OC)cc3)c(=O)oc2=CC2OC(C)(C)C=CC12` (centres unmarked) [Compound 2d, 4-O-(p-Trifluoromethylbenzoyl)robustic acid]: the melting point fell in the range of 225.6 to 228.5 °C.
For `COC1=c2c(OC(=O)c3ccccc3)c(-c3ccc(OC)cc3)c(=O)oc2=CC2OC(C)(C)C=CC12` (centres unmarked) [Compound 2a, 4-O-Benzoyl-robustic acid], the melting point fell in the range of 266.4 to 273.4 °C.
Consider `COc1ccc(-c2c(O)c3c(OC)c4c(cc3oc2=O)OC(C)(C)C=C4)cc1` [RA, robustic acid], for which the 50% inhibitory concentration (IC50) in data set [1] (Homo sapiens, HL-60, 48 h) is above 100 µM; in [2] (Homo sapiens, A549, 48 h), above 100 µM; in data set [3] (Homo sapiens, SMMC-7721, 48 h), above 100 µM; in data set [4] (Homo sapiens, HepG2, 48 h), above 100 µM; in data set [5] (Homo sapiens, HeLa) it was above 100 µM; in [6] (Homo sapiens, L02, 48 h), above 100 µM. The same molecule registered an IC50 in data set [7] (Homo sapiens, BEAS-2B) above 100 µM. Further, the “Topo I inhibitory activity” value in data set [8] (concentrations lower than 10 mM) is recorded as “no inhibitory activity was found”.
Turning to `COC1=c2c(OC(=O)c3ccc([N+](=O)[O-])cc3)c(-c3ccc(OC)cc3)c(=O)oc2=CC2OC(C)(C)C=CC12` (centres unmarked) [Compound 2g, 4-O-(p-Nitrobenzoyl)robustic acid], the melting point is 239.5 to 241.9 °C.
On to `CC[C@@]1(O)C(=O)OCc2c1cc1n(c2=O)Cc2cc3ccccc3nc2-1` [CPT, camptothecin], for which the half-inhibitory concentration (IC50) is 12.2 ± 1.06 µM in [1] (Homo sapiens, HL-60, 48 h); 15.3 ± 1.22 µM in [2] (Homo sapiens, A549, 48 h); 18.9 ± 4.12 µM in [3] (Homo sapiens, SMMC-7721, 48 h); 1.3 ± 0.62 µM in [4] (Homo sapiens, HepG2, 48 h); 0.5 ± 0.08 µM in data set [5] (Homo sapiens, HeLa); 0.03 ± 0.002 µM in [6] (Homo sapiens, L02, 48 h). In addition, the midpoint of inhibition in [7] (Homo sapiens, BEAS-2B), the IC50, lay at 2.16 ± 0.47 µM.
`COC1=c2c(OC(=O)c3ccc(Br)cc3F)c(-c3ccc(OC)cc3)c(=O)oc2=CC2OC(C)(C)C=CC12` (centres unmarked) [Compound 2i, 4-O-(4-Bromo-2-fluorobenzoyl) robustic acid] returned a melting point of 250.8 to 251.9 °C.
`COc1ccc(-c2c(OC(=O)c3ccc(F)cc3)c3c(OC)c4c(cc3oc2=O)OC(C)(C)C=C4)cc1` [Compound 2f, 4-O-(p-Fluorobenzoyl)robustic acid] registered a melting point of 236.8 to 239.6 °C. In addition, the IC50 in data set [1] (Homo sapiens, HL-60, 48 h) was above 100 µM. For the same molecule, the IC50 in data set [2] (Homo sapiens, A549, 48 h) is above 100 µM. In data set [3] (Homo sapiens, SMMC-7721, 48 h), this molecule had a half-inhibitory concentration (IC50) of 66.2 ± 5.7 µM. Further, the IC50 in data set [4] (Homo sapiens, HepG2, 48 h) was 87.3 ± 2.14 µM. In data set [5] (Homo sapiens, HeLa), this molecule yielded an IC50 of 65.1 ± 1.27 µM. In data set [6] (Homo sapiens, L02, 48 h), this molecule showed an IC50 above 100 µM. Besides, the IC50 in data set [7] (Homo sapiens, BEAS-2B) is above 100 µM. Moreover, the “Topo I inhibitory activity” value in [8] (gel electrophoresis) is given as “moderate inhibitory activities”.

Usually melting point stands for the temperature of the solid-liquid transition. The IC50 is the concentration that gives 50% inhibition. The low end stands for greater potency in that assay, the high end for weaker potency in that assay.
